Source: PMC3724809, “Analysis of the Interaction Interfaces of the N-Terminal Domain from Pseudomonas aeruginosa MutL” (PLoS ONE, 2013)

Legend:
[1] = molecular target: T1, PaNTD (P. aeruginosa MutL N-terminal domain) (Pseudomonas aeruginosa, UniProt Q9HUL8); experiment: size-exclusion chromatography, nucleotide-induced dimerization; format: binding; conditions: 5 mM MgCl2, 150 mM KCl, 20 mM Tris-HCl pH 7.9, room temperature
T1 sequence (Q9HUL8 1-339): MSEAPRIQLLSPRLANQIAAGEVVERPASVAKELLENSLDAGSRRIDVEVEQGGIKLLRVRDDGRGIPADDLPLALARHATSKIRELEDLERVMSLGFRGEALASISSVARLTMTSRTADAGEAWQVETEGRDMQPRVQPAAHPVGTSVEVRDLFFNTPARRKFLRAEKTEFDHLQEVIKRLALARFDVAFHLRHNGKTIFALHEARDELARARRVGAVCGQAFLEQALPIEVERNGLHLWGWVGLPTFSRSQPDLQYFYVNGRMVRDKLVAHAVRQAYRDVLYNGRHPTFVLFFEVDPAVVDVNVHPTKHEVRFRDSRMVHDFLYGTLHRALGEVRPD

[2] = molecular target: T2, EcNTD (E. coli MutL N-terminal domain, LN40) (Escherichia coli, UniProt P23367); experiment: DSS chemical cross-linking, nucleotide-induced dimerization, SDS-PAGE; format: binding; conditions: 1 mM AMPPNP, 5 mM MgCl2, 150 mM KCl, 20 mM HEPES pH 7.4, 4 °C
T2 sequence (P23367 1-342): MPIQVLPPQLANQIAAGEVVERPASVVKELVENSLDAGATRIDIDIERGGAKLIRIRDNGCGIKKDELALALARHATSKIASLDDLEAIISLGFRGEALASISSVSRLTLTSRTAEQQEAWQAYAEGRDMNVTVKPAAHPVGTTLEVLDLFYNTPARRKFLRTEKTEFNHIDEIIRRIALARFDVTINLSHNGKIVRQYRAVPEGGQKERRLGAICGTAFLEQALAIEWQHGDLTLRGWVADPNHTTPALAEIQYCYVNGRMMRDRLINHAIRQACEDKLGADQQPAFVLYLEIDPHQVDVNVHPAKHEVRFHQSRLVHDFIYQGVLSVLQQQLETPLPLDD

[3] = molecular target: the molecule itself; experiment: SEC; Superose 12 10/30, 20 mM Tris-HCl pH 7.9, 150 mM KCl, 5 mM MgCl2, 1 mM DTT, room temperature; 1 mg/ml PaNTD or 2 mg/ml EcNTD (legend: 22 µM) without nucleotide, with ADP or with ATP; calibrated with BSA 45 and 66 kDa

## Nc1ncnc2c1ncn2[C@@H]1O[C@H](COP(=O)(O)OP(=O)(O)O)[C@@H](O)[C@H]1O [ADP]
[1]
  size-exclusion chromatography, nucleotide-induced dimerization: PaNTD binding to ADP displaced monomer-dimer equilibrium as judged by size-exclusion chromatography

## Nc1ncnc2c1ncn2[C@@H]1O[C@H](COP(=O)(O)OP(=O)(O)NP(=O)(O)O)[C@@H](O)[C@H]1O [AMPPNP]
[2]
  DSS chemical cross-linking, nucleotide-induced dimerization, SDS-PAGE: EcNTD dimers were only observed in presence of AMPPNP (Figure S5)

## Nc1ncnc2c1ncn2[C@@H]1O[C@H](COP(=O)(O)OP(=O)(O)OP(=O)(O)O)[C@@H](O)[C@H]1O [ATP]
[1]
  size-exclusion chromatography, nucleotide-induced dimerization: No major differences were observed among the elution pattern of ADP or ATP bound PaNTD

B1: Pseudomonas aeruginosa MutL N-terminal domain (PaNTD, amino acids 1-339), His6-tagged (domain or fragment, UniProt Q9HUL8 1-339, looked up)
chain: MSEAPRIQLLSPRLANQIAAGEVVERPASVAKELLENSLDAGSRRIDVEVEQGGIKLLRVRDDGRGIPADDLPLALARHATSKIRELEDLERVMSLGFRGEALASISSVARLTMTSRTADAGEAWQVETEGRDMQPRVQPAAHPVGTSVEVRDLFFNTPARRKFLRAEKTEFDHLQEVIKRLALARFDVAFHLRHNGKTIFALHEARDELARARRVGAVCGQAFLEQALPIEVERNGLHLWGWVGLPTFSRSQPDLQYFYVNGRMVRDKLVAHAVRQAYRDVLYNGRHPTFVLFFEVDPAVVDVNVHPTKHEVRFRDSRMVHDFLYGTLHRALGEVRPD
notes: MutL of Pseudomonas aeruginosa, N-terminal ATPase domain, residues 1-339 of PaMutL, amplified from genomic DNA; monomeric MW 37.7 kDa; The pET-15b vector should add an N-terminal His6 tag with a thrombin site (surmised, as is cloning through NdeI); no cleavage of the tag is described; also called His6-PaNTD; His-tag PaNTD
[3]
  dimer share of peak area: ~0.2 share of the dimer peak (monomer 0.8)
  stoichiometry N: 2
